Assay results as given in patent US20240335541A1, “NANOMATERIALS COMPRISING DIAMINES” (Beam Therapeutics Inc., priority 2021, published 2024).

Columns and labels:
Type in all cases: physicochemical
[1] = LNP hydrodynamic diameter and polydispersity by DLS (Example 1 LNPs); details: LNPs prepared according to Example 1, total lipid to NA mass ratio 11.7
Procedure: LNPs were prepared with a total lipid to NA mass ratio of 11.7. LNPs were formed by microfluidic mixing of the lipid and NA solutions using a Precision Nanosystems NanoAssemblr Spark or Benchtop series Instruments, according to the manufacturers protocol. A ratio of aqueous to organic solvent of approximately 2:1 or 3:1 was maintained during mixing using differential flow rates. After mixing, LNPs were collected, diluted in PBS (approximately 1:1 v/v). Further buffer exchange was conducted using dialysis in PBS at 4° C. for 4 to 24 hours against a 20 kDa filter. After this initial dialysis, each individual LNP preparation was characterized via dynamic light scattering (DLS) to measure the size (e.g., diameter) and polydispersity. In addition, pKa of a subpopulation of LNPs was measured via a 2-(p-toluidino)-6-napthalene sulfonic acid (TNS) assay. LNPs falling within specific diameter and polydispersity ranges are pooled, and further dialyzed against phosphate buffer saline (PBS) at 4° C. for 1 to 4 hours against a 100 kDa dialysis cassette. After the second dialysis, LNPs were sterile filtered using […] filter and stored at 4° C. for further use.
DLS-LNP hydrodynamic diameter and polydispersity index (PDI) were measured using high throughput dynamic light scattering (DLS) (DynaPro plate reader II, Wyatt). LNPs were diluted 1×PBS to an appropriate concentration and analyzed.
Lipid nanoparticle components were dissolved in 100% ethanol at specified lipid component molar ratios. Nucleic acid (NA) cargo was dissolved in 10 mM citrate, 100 mM NaCl, pH 4.0, resulting in a concentration of NA cargo of approximately 0.22 mg/mL. In some embodiments, NA cargos included both a functional NA and a reporter DNA barcode mixed at mass ratios of 1:10 to 10:1 functional NA to barcode. LNPs were formulated with a total lipid to NA mass ratio of 11.7. LNPs were formed by microfluidic mixing of the lipid and NA solutions using a Precision Nanosystems NanoAssemblr Spark or Benchtop series Instruments, according to the manufacturer's protocol. A 2:1 or 3:1 ratio of aqueous to organic solvent was maintained during mixing using differential flow rates. After mixing, LNPs were collected, diluted in PBS (approximately 1:1 v/v), and further buffer exchange was conducted using dialysis in PBS at 4° C. for 8 to 24 hours against a 20 kDa filter. After this initial dialysis, each individual LNP formulation was characterized via DLS to measure the size and polydispersity, and the pKa of a subpopulation of LNPs is measured via TNS assay. After dialysis, LNPs were sterile filtered using 0.22 micron sterile filter and stored at 4° C. for further use.
LNP hydrodynamic diameter and polydispersity index (PDI) were measured using high throughput dynamic light scattering (DLS) (DynaPro plate reader II, Wyatt). LNPs were diluted 1×PBS to an appropriate concentration and analyzed.

[2] = LNP encapsulation efficiency, unlysed vs lysed LNPs, Qubit kit (Example 1 LNPs); details: LNPs prepared according to Example 1; total lipid to NA mass ratio 11.7
Procedure: Concentration of NA was determined by Qubit microRNA kit (for siRNA) or HS RNA kit (for mRNA) per manufacturer's instructions. Encapsulation efficiency was determined by measuring nucleic acid concentration in unlysed and lysed LNPs. Encapsulation efficiency was determined by measuring unlysed and lysed LNPs.

[3] = LNP encapsulation efficiency by Ribogreen assay (Example 16 LNPs); details: Example 16 LNPs: 47.5% Ionizable Lipid: 40% cholesterol: 2.5% PEG-2000 DMG: 10% DPSC, N/P 4-8
Procedure: (§1) LNPs were prepared with 47.5% Ionizable Lipid (e.g., a compound provided herein): 40% cholesterol: 2.5% PEG-2000 DMG: 10% DPSC and an N/P ratio range of 4-8. LNPs were formed by microfluidic mixing of the lipid and NA solutions using a Precision Nanosystems NanoAssemblr Spark or Benchtop series Instruments, according to the manufacturer's protocol. A ratio of aqueous to organic solvent of approximately 2:1 or 3:1 was maintained during mixing using differential flow rates. After mixing, LNPs were collected, diluted in phosphate buffer saline (PBS) or Tris-buffered saline (TBS) (approximately 1:1 v/v). Further buffer exchange was conducted using dialysis in PBS or TBS at 4° C. for 4 to 24 hours against a 20 kDa filter. After this initial dialysis, each individual LNP preparation was characterized via dynamic light scattering (DLS) to measure the size (e.g., diameter) and polydispersity. LNPs falling within specific diameter and polydispersity ranges were pooled, and further dialyzed against PBS or TBS at 4° C. for 1 to 4 hours against a 100 kDa dialysis cassette. After the second dialysis, LNPs were sterile filtered using 0.22 μm filter and stored at 4° C. for further use.
RNA concentration and encapsulation efficiency were determined by Ribogreen assay (BioTek Synergy LX plate reader).

[4] = LNP hydrodynamic diameter and PDI by DLS (Example 16 LNPs, Stunner); details: Example 16 LNPs: 47.5% Ionizable Lipid: 40% cholesterol: 2.5% PEG-2000 DMG: 10% DPSC, N/P 4-8
Procedure: as §1
LNP hydrodynamic diameter and polydispersity index (PDI) were measured using high throughput dynamic light scattering (DLS) (Stunner, Unchained Labs). LNPs were diluted 1×TBS or PBS to an appropriate concentration and analyzed.

Row | Structure (SMILES) | Mean Diameter [1] | Mean PDI [1] | Mean Encapsulation Efficiency [2] | Mean Encapsulation Efficiency [3] | Mean Diameter [4] | Mean PDI [4]
1 | CC/C=C\CCCCOC(CCC(=O)OCCCCCCN(CCCO)CCN(CCCCCCCCCOC(=O)C(CCCC)CCCCCC)CCCCCCCCCOC(=O)C(CCCC)CCCCCC)OCCCC/C=C\CC (stereo not drawn) [Example 7-21] |  |  |  | 60.9% | 87.1 nm | 0.12
2 | CC/C=C\CCCCOC(CCC(=O)OCCCCCCCN(CCO)CCCN(CCCCCCOC(=O)C(CCCC)CCCCCC)CCCCCCOC(=O)C(CCCC)CCCCCC)OCCCC/C=C\CC (stereo not drawn) [Example 7-9] |  |  |  | 69.4% | 89.2 nm | 0.11
3 | CC/C=C\CCCCOC(CCC(=O)OCCCCCCN(CCO)CCCN(CCCCCCOC(=O)CCC(OCCCC/C=C\CC)OCCCC/C=C\CC)CCCCCCOC(=O)CCC(OCCCC/C=C\CC)OCCCC/C=C\CC)OCCCC/C=C\CC [Example 7-1] |  |  |  | 80.8% | 90.2 nm | 0.12
4 | CC/C=C\CCCCOC(CCC(=O)OCCCCCCN(CCCO)CCN(CCCCCCOC(=O)C(CCCC)CCCCCC)CCCCCCOC(=O)C(CCCC)CCCCCC)OCCCC/C=C\CC (stereo not drawn) [Example 7-20] |  |  |  | 71.4% | 97.0 nm | 0.17
5 | CC/C=C\CCCCOC(CCC(=O)OCCCCCCCN(CCCCCCCOC(=O)CCC(OCCCC/C=C\CC)OCCCC/C=C\CC)CCCN(CCO)CCCCCCCCCOC(=O)C(CCCC)CCCCCC)OCCCC/C=C\CC (stereo not drawn) [Example 7-24, ((3-((9-((2-butyloctanoyl)oxy)nonyl)(2-hydroxyethyl)amino)propyl)azanediyl)bis(heptane-7,1-diyl) bis(4,4-bis(((Z)-oct-5-en-1-yl)oxy)butanoate)] |  |  |  | 72.4% | 92.7 nm | 0.12
6 | CC/C=C\CCCCOC(CCC(=O)OCCCCCCN(CCO)CCCN(CCCCCC(=O)OCCCCCCCCC)CCCCCC(=O)OCCCCCCCCC)OCCCC/C=C\CC [Example 7-5, dinonyl 6,6′-((3-((6-((4,4-bis(((Z)-oct-5-en-1-yl)oxy)butanoyl)oxy)hexyl)(2-hydroxyethyl)amino)propyl)azanediyl)dihexanoate] |  |  |  | 49.0% | 81.3 nm | 0.12
7 | CC/C=C\CCCCOC(CCC(=O)OCCCCCCCN(CCCCCCCOC(=O)CCC(OCCCC/C=C\CC)OCCCC/C=C\CC)CCN(CCO)CCCCCCCCCOC(=O)C(CCCC)CCCCCC)OCCCC/C=C\CC (stereo not drawn) [Example 7-26, ((2-((9-((2-butyloctanoyl)oxy)nonyl)(2-hydroxyethyl)amino)ethyl)azanediyl)bis(heptane-7,1-diyl) bis(4,4-bis(((Z)-oct-5-en-1-yl)oxy)butanoate)] |  |  |  | 69.2% | 82.5 nm | 0.12
8 | CC/C=C\CCCCOC(CCC(=O)OCCCCCCCN(CCCO)CCN(CCCCCCCCCOC(=O)C(CCCC)CCCCCC)CCCCCCCCCOC(=O)C(CCCC)CCCCCC)OCCCC/C=C\CC (stereo not drawn) [Example 7-27] |  |  |  | 63.3% | 81.7 nm | 0.11
9 | CC/C=C\CCCCOC(CCC(=O)OCCCCCCN(CCO)CCCN(CCCCCCOC(=O)C(CCCC)CCCCCC)CCCCCCOC(=O)C(CCCC)CCCCCC)OCCCC/C=C\CC (stereo not drawn) [Example 7-7] |  |  |  | 57.4% | 83.4 nm | 0.08
10 | CC/C=C\CCCCOC(CCC(=O)OCCCCCCN(CCO)CCCN(CCCCCCCC(=O)OCCCCCCCCC)CCCCCCCC(=O)OCCCCCCCCC)OCCCC/C=C\CC [Example 7-6] |  |  |  | 46.0% | 85.7 nm | 0.10
11 | CC/C=C\CCCCOC(CCC(=O)OCCCCCCCN(CCO)CCCN(CCCCCCCCCOC(=O)C(CCCC)CCCCCC)CCCCCCCCCOC(=O)C(CCCC)CCCCCC)OCCCC/C=C\CC (stereo not drawn) [Example 7-25] |  |  |  | 62.8% | 92.4 nm | 0.13

More lines, now with the values ahead:

Row | Mean Diameter [1] | Mean PDI [1] | Mean Encapsulation Efficiency [2] | Mean Encapsulation Efficiency [3] | Mean Diameter [4] | Mean PDI [4] | Structure (SMILES)
12 | 79.8 nm | 9.4% | 96.4% |  |  |  | CC/C=C\CCCCOC(CCC(=O)OCCCCCCCN(CCO)CCN(CCCCCCCOC(=O)CCC(OCCCC/C=C\CC)OCCCC/C=C\CC)CCCCCCCOC(=O)CCC(OCCCC/C=C\CC)OCCCC/C=C\CC)OCCCC/C=C\CC [Example 7-11]
13 | 85.9 nm | 10.8% | 97.2% |  |  |  | CC/C=C\CCCCOC(CCC(=O)OCCCCCCCN(CCCO)CCN(CCCCCCCOC(=O)CCC(OCCCC/C=C\CC)OCCCC/C=C\CC)CCCCCCCOC(=O)CCC(OCCCC/C=C\CC)OCCCC/C=C\CC)OCCCC/C=C\CC [Example 7-17]
14 |  |  |  | 83.2% | 95.4 nm | 0.13 | CC/C=C\CCCCOC(CCC(=O)OCCCCCCCN(CCCO)CCCN(CCCCCCCOC(=O)CCC(OCCCC/C=C\CC)OCCCC/C=C\CC)CCCCCCCOC(=O)CCC(OCCCC/C=C\CC)OCCCC/C=C\CC)OCCCC/C=C\CC [Example 7-29]
15 |  |  |  | 81.8% | 91.3 nm | 0.11 | CC/C=C\CCCCOC(CCC(=O)OCCCCCCN(CCCO)CCN(CCCCCCOC(=O)CCC(OCCCC/C=C\CC)OCCCC/C=C\CC)CCCCCCOC(=O)CCC(OCCCC/C=C\CC)OCCCC/C=C\CC)OCCCC/C=C\CC [Example 7-16]
16 | 100.8 nm | 13.2% | 92.9% | 70.0% | 90.6 nm | 0.13 | CC/C=C\CCCCOC(CCC(=O)OCCCCCCCN(CCCCCCCOC(=O)CCC(OCCCC/C=C\CC)OCCCC/C=C\CC)CCN(CCCO)CCCCCCCC(=O)OCCCCCCCCC)OCCCC/C=C\CC [Example 7-19, ((2-((3-hydroxypropyl)(8-(nonyloxy)-8-oxooctyl)amino)ethyl)azanediyl)bis(heptane-7,1-diyl) bis(4,4-bis(((Z)-oct-5-en-1-yl)oxy)butanoate)]
17 |  |  |  | 49.6% | 98.8 nm | 0.11 | CC/C=C\CCCCOC(CCC(=O)OCCCCCCCN(CCCCCCCOC(=O)CCC(OCCCC/C=C\CC)OCCCC/C=C\CC)CCCN(CCCO)CCCCCCCC(=O)OCCCCCCCCC)OCCCC/C=C\CC [Example 7-28, ((3-((3-hydroxypropyl)(8-(nonyloxy)-8-oxooctyl)amino)propyl)azanediyl)bis(heptane-7,1-diyl) bis(4,4-bis(((Z)-oct-5-en-1-yl)oxy)butanoate)]
18 |  |  |  | 85.1% | 69.1 nm | 0.13 | CC/C=C\CCCCOC(CCC(=O)OCCCCCCN(CCCCCCOC(=O)CCC(OCCCC/C=C\CC)OCCCC/C=C\CC)CCCN(CCO)CCCCCCCC(=O)OCCCCCCCCC)OCCCC/C=C\CC [Example 7-3, ((3-((2-hydroxyethyl)(8-(nonyloxy)-8-oxooctyl)amino)propyl)azanediyl)bis(hexane-6,1-diyl) bis(4,4-bis(((Z)-oct-5-en-1-yl)oxy)butanoate)]
